Data published in US20260240820A1, “METHOD FOR CONTROLLING MEMBRANE POTENTIAL-DEPENDENT ION CHANNEL THROUGH TYPE I TASTE RECEPTORS (T1RS)” (ION CHAT RESEARCH CORPORATE, priority 2022, published 2026).
Entries after “also recorded” stand apart in the source; their conditions may differ. Where two headings read alike, the source gives them in different places.

How the values were obtained:
Nav1.6 = experiment: Patch-clamp recording of VGSC current in HEK (Nav1.6) cells; assay type: cell-based, human
Excerpt: The cells used in the previous (18-1) experiment were cardiac-type VGSC cells. In this experiment, HEK (Nav1.1) and HEK (Nav1.6) cells, which are considered neuronal VGSC cells, were created. The effects of four peptides—Aβ25-35, Aβ1-38, Aβ1-40, and Aβ1-42—were examined using the same experimental protocol as in (18-1). […]

Nav1.1 = experiment: Patch-clamp recording of VGSC current in HEK (Nav1.1) cells; assay type: cell-based, human
Excerpt: The cells used in the previous (18-1) experiment were cardiac-type VGSC cells. In this experiment, HEK (Nav1.1) and HEK (Nav1.6) cells, which are considered neuronal VGSC cells, were created. The effects of four peptides—Aβ25-35, Aβ1-38, Aβ1-40, and Aβ1-42—were examined using the same experimental protocol as in (18-1).

[1] = tested on: Nav1.5 in T1R3-silenced HEK cells; experiment: VGSC current in HEK Nav1.5 cells with silenced T1R3; assay type: cell-based, human
Summary of the method: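 VGSC currents were recorded in HEK-Nav1.5 cells with T1R3 knocked down by a miRNA expression vector, stimulated every 8 s. The effect of Aβ25-35 peptide was compared with control HEK-Nav1.5 cells.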

HEK cells = experiment: Cell morphology observation (bright-field), HEK cells; assay type: cell-based, human
Excerpt: (§1) In a previous implementation example (FIG. 54), it was shown that Aβ peptides and artificial sweeteners cause depolymerization of the cytoskeleton. […] To easily compare and confirm the morphological changes before and after the application of Aβ1-40, the areas of interest were circled with dashed lines. Observations were made using bright-field microscopy. Images were captured with a camera (UI-3880CP-M) from IDS mounted on the microscope, and the images were imported to a PC using the software that came with the camera. Further image processing was done using ImageJ (Rasband, 1997-2018).
The solution (HHBS*) was adjusted to achieve the final concentration values shown in Table 11 for Aβ42/40, and the changes in cell morphology were observed. Indicators included cell body contraction, extension, or the presence of lamellipodia ruffling around the cell periphery.

HUEhT-1 cells = experiment: Cell morphology observation, HUEhT-1 umbilical vein endothelial cells; assay type: cell-based, human; conditions: Aβ1-40 at 12.5 nM
Excerpt: as §1

[2] = tested on: endogenous T1R GPCR of HEK cells; experiment: Intracellular calcium (Cal-520) in HEK cells stably expressing Nav1.1 with endogenous T1R GPCR; assay type: cell-based, human; conditions: 10 nM then 20 nM for Aβ1-40 and Aβ1-42
Protocol: Specifically, experiments were conducted as follows using HEK cells stably expressing Nav1.1 (FIG. 45). The calcium-sensitive reagent (Cal-520, AAT Bioquest) was incubated at 37° C. for 60 minutes, followed by incubation at room temperature for 30 minutes, and then changes in intracellular calcium were measured using a fluorescence microscope. […] Initially, 10 nM, followed by 20 nM of Aβ1-40 was applied after 5 minutes (arrow). […] A total of 6 cell groups from two independent experiments were measured, averaged by the maximum fluorescence response value, and the mean and standard error (stderr) were calculated and plotted. […] 10 nM, followed by 20 nM of Aβ1-42 was applied after 5 minutes (arrow). […] A total of 12 cell groups from two independent experiments were measured, averaged by the minimum fluorescence response value, and the mean and standard error (stderr) were calculated and plotted. Similar to the experimental results using the patch-clamp method when Aβ peptide was applied to Nav1.5, it was confirmed from intracellular calcium measurements that the effects of Aβ1-40 and Aβ1-42 were different.

[3] = tested on: T1R3 inherent in HEK cells; experiment: Impedance of HEK Nav1.5 cell sheet; assay type: cell-based, human
Protocol: Specifically, cells were cultured on a conductive glass (FTO glass, thickness 2.2 mm) electrode plate to form a sheet, and the change in impedance value of the cell sheet was measured by applying current stimulation between the conductive glass covered with cells and the extracellular solution. The measurement experiment was conducted using the voltage-clamp method. A voltage pulse of 1 mV (1 Hz, 220 ms width) was applied between the silver chloride electrode placed in the extracellular solution and the electrode plate, and the change caused by the amyloid peptide was measured as a change in current (I).
By measuring the current response (I) occurring there, the resistance ® of the entire cell sheet to the applied voltage (1 mV) can be calculated from Ohm's law (V=IR>R=V/I). As shown in (FIG. 46), it was confirmed that the T1R3 antibody inhibits the effect of Aβ1-40 peptide.

Nav1.5 = experiment: Patch-clamp (voltage clamp) recording of VGSC current in HEK cells stably expressing Nav1.5; conditions: for Effect on VGSC current enhanced by Aβ42/40 (AD-D): applied after Aβ42/40 (AD-D)
SH-SY5Y cells = experiment: Cell morphology observation, SH-SY5Y cells; assay type: cell-based, human; conditions: neuron-like differentiated SH-SY5Y cells
VGSC of NG108-15 cells = experiment: Whole-cell patch-clamp of VGSC current in differentiated NG108-15 cells; assay type: cell-based, mouse/rat; conditions: subsequent application
Excerpt: Specifically, we used mouse/rat hybridoma cells NG108-15 differentiated into neuronal-like cells using forskolin and low-concentration FBS treatment, along with human-derived cells expressing human Nav1.5. We recorded VGSC currents using the whole-cell patch-clamp method and observed the effects of Aβ peptides (FIG. 58A-1, B). The term “Aβ peptides” here refers to a mixture of Aβ40 and Aβ42. We used two types of mixtures similar to those used in the experiments on cell morphology and lamellipodia dynamics. One mixture corresponds to the Aβ42/40 ratio observed in cerebrospinal fluid from healthy individuals (NDC: non-demented control), and the other corresponds to the ratio observed in cerebrospinal fluid from Alzheimer's disease patients with cognitive impairment (AD-D).

[4] = tested on: VGSC of SH-SY5Y cells (Nav1.7, Nav1.2, Nav1.3); experiment: Patch-clamp recording of VGSC current in differentiated SH-SY5Y cells; assay type: cell-based, human; conditions: 5 mM
VGSC = experiment: Patch-clamp recording of VGSC current, cell type not specified or several cell types (summary statements); assay type: cell-based, human
Kv1.2 = experiment: Patch-clamp recording of Kv1.2 potassium current in HEK cells expressing Kv1.2; assay type: cell-based, human
Protocol: The effects of Aβ peptides or umami substances on sustained potassium currents (VGKC) in cardiac myocytes can be studied using HEK cells expressing VGKC (such as Kv1.2, Kv3.2, Kv3.3) as well as SH-SY5Y cells expressing endogenous T1R GPCRs. For instance, as shown in the implementation example in (FIG. 36B), Aβ peptides were applied to VGKC-expressing human cultured cells, and VGKC currents were recorded using ramp-like or rectangular voltage waveforms via the patch-clamp technique. This allowed measurement of the changes (inhibition) in VGKC currents caused by Aβ peptides. Similar inhibition studies on VGKC can be conducted using umami substance L-glutamate sodium (MSG) (FIG. 36A).
As shown in (FIG. 37), Aβ1-42 peptide, unlike Aβ25-35 targeting T1R3, interacts with T1R1 and inhibits VGSC currents (FIGS. 37D, E).

[5] = tested on: voltage-dependent potassium channel current of SH-SY5Y cells; experiment: Voltage clamp recording of outward potassium current in SH-SY5Y cells; assay type: cell-based, human; conditions: 5 mM
Excerpt: The inward current represents the transient peak observed immediately after stimulation, while the outward current measures the average value during the last 50 ms of rectangular pulse stimulation.

[6] = tested on: Nav1.5 in T1R1-silenced HEK cells; experiment: VGSC current in HEK Nav1.5 cells with silenced T1R1; assay type: cell-based, human; conditions: 5 mM for MSG2.5
HEK Nav1.5 cells = experiment: GFP-Tubulin / GFP-Actin cytoskeleton observation in HEK Nav1.5 cells; assay type: cell-based, human; conditions: MSG 5 mM
Excerpt: To observe the impact of cinacalcet and Aβ1-42 peptide on microfilament (actin) fiber structures, we labeled cells with GFP-Actin (FIG. 34). […] This experimental approach, using GFP-Tubulin, GFP-Actin, or other fluorescent proteins to label microtubules and microfilaments, can be used to screen compounds that regulate the activity of ion channels and neuronal function-controlling proteins. Additionally, simultaneous labeling of tubulin and actin can be achieved using fluorescent antibodies or phalloidin after cell fixation.

Q: Which “Effect on VGSC current” value (Nav1.6) does the source give for “Aβ1-40: amyloid β peptide, Sequence No. 3” here?
A: VGSC enhancement

Q: And the “Effect on VGSC current” value (Nav1.1)?
A: VGSC enhancement

Q: And the “Effect on VGSC in T1R3-silenced cells” value [1]?
A: is lost

Q: What about the “Change in cell morphology” value (HEK cells; Aβ1-40 at 12.5 nM) of the same molecule?
A: a decrease in cell area/volume

Q: What about the “Change in cell morphology” value (HUEhT-1 cells) of the same molecule?
A: a decrease in cell area/volume

Q: What about the “Change in cell morphology” value (HUEhT-1 cells; listed as Aβ40) of the same molecule?
A: significant cell body contraction (atrophy)

Q: And the “Change in intracellular calcium” value [2]?
A: increased intracellular calcium levels; also recorded: continued to slowly increase

Q: And the “Change of impedance of cell sheet” value [3]?
A: decrease in impedance

Q: What about the “Effect on VGSC current amplitude” value (Nav1.5) of the same molecule?
A: reduced VGSC currents for both prepulse potentials

Q: What about the “Shift of steady-state inactivation (S-S) curve of VGSC” value (Nav1.5) of the same molecule?
A: to the left; also recorded: more towards the hyperpolarizing direction

Q: What does the source list for `NCCC(=O)O` [β-alanine]?
A: Effect on cell motility (HEK cells; 5 μM): promotes cell motility; Effect on cells contracted and inactive due to Aβ AD (HEK cells; HEK cells, data not shown): induces activity in cells; Lamellipodia activity (SH-SY5Y cells): enhances lamellipodia activity; Effect on VGSC current after Aβ42/40 (AD-D) (VGSC of NG108-15 cells): did not cause any further changes; Effect on VGSC current enhanced by Aβ42/40 (AD-D) (Nav1.5): reversed; also recorded: reverse the enhancement of VGSC current; also recorded: nearly returned to the control level; Effect on VGSC current enhanced by Aβ42/40 (AD-D) (Nav1.5; listed as D-alanine): nearly restoring it to control levels

Q: How did the “Inactivation of VGSC current” value [4] turn out when `N[C@@H](CCC(=O)O)C(=O)[O-].[Na+]` [MSG, monosodium glutamate] was run?
A: delayed; also recorded: The inactivation speed of VGSC slows in 2 out of 3 SH-SY5Y cells

Q: And the “Effect on VGSC inactivation” value (VGSC)?
A: delays the inactivation of VGSC

Q: And the “Effects on VGSCs” value (VGSC)?
A: Transient enhancement of VGSC; also recorded: Left shift of the I-V curve

Q: And the “VGSC I-V curve” value (VGSC; 5 mM)?
A: 5 mM MSG shifts the VGSC I-V curve to a more hyperpolarized direction.

Q: And the “Delay of VGSC inactivation” value (VGSC; 10 mM)?
A: This delaying effect even more evident at 10 mM MSG.

Q: What about the “Inactivation curve of VGSC shifted by dichlorprop” value (VGSC; VGSC inhibited by more than 80% by dichlorprop) of the same molecule?
A: partially recovered

Q: And the “Suppression / leftward S-S shift of VGSC caused by artificial sweeteners” value (VGSC; cells pre-treated with aspartame or saccharin)?
A: partially reversed

Q: What about the “Effects on VGSCs” value (VGSC; listed as L-Glu (MSG)) of the same molecule?
A: Delay in VGSC inactivation

Q: And the “Effect on voltage gated K+ channel (Kv1.2) current” value (Kv1.2)?
A: Inhibition of Voltage gated

Q: What about the “Effect on outward potassium current” value [5] of the same molecule?
A: reduces the voltage-dependent potassium channel current; also recorded: decrease in outward currents

Q: What about the “Effect on VGSC currents in T1R1-silenced cells” value [6] of the same molecule?
A: MSG had no effect on VGSC enhancement in T1R1 silenced cells.

Q: And the “Microtubule fibrous structure (GFP-Tubulin)” value (HEK Nav1.5 cells)?
A: disappearance of microtubule-like structures; also recorded: microtubule structure disappeared

Q: And the “Inactivation process of transient VGSC current” value (Nav1.5; 5 mM)?
A: significantly delayed; also recorded: This delay in inactivation speed more pronounced in Nav1.5 cells

Q: What about the “VGSC current suppressed by TBB” value (Nav1.5; 10 mM, after CK2 inhibitor TBB) of the same molecule?
A: partially recovered from TBB suppression

Q: And the “S-S curve shifted by TBB” value (Nav1.5; after TBB)?
A: partially reversed the leftward shift caused by TBB
